Measured values as given in ChEMBL document CHEMBL5291721, “A preclinical secondary pharmacology resource illuminates target-adverse drug reaction associations of marketed drugs” (Nat Commun, 2023).

Columns and labels:
[1] = target: T1, Alpha-1A adrenergic receptor (Homo sapiens, UniProt P35348); format: functional, cell-based
T1 sequence (P35348 whole entry): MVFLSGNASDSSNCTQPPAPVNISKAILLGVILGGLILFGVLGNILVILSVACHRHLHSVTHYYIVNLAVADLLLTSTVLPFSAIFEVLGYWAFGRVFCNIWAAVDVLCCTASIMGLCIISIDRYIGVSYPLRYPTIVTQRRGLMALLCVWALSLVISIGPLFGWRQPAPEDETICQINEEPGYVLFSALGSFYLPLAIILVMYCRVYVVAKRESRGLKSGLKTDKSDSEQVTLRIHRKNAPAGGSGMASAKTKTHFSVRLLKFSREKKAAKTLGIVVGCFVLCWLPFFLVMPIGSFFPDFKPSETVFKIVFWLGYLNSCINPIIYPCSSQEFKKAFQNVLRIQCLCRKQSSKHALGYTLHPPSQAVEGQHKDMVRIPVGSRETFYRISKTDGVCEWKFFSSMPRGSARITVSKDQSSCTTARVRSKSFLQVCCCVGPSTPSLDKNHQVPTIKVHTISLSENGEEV

[2] = target: T2, Alpha-2C adrenergic receptor (Homo sapiens, UniProt P18825); format: functional
T2 sequence (P18825 whole entry): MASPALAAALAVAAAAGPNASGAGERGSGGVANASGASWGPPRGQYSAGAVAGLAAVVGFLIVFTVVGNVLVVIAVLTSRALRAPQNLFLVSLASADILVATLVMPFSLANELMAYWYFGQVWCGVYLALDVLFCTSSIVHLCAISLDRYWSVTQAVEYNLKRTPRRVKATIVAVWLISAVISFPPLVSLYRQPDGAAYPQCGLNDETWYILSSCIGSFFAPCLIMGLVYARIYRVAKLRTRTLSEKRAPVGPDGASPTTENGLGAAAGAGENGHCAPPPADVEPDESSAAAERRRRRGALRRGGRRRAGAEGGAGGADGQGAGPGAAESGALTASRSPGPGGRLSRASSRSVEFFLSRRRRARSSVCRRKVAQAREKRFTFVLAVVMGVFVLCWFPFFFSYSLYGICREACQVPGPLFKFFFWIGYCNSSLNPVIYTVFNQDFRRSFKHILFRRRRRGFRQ

[3] = target: T3, Gastrin/cholecystokinin type B receptor (Homo sapiens, UniProt P32239)
T3 sequence (P32239 whole entry): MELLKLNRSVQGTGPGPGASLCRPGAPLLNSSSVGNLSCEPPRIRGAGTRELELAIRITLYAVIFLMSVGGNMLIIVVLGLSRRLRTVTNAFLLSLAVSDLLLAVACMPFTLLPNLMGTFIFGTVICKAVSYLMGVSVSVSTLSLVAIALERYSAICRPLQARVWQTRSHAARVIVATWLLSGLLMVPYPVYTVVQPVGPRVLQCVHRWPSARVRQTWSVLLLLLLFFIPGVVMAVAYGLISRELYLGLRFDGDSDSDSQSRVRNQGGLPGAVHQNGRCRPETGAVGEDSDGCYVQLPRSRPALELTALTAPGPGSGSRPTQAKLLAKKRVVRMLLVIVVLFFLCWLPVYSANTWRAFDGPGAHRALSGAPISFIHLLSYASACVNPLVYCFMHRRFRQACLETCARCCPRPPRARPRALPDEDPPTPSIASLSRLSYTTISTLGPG

[4] = target: Growth hormone secretagogue receptor type 1 (Homo sapiens, UniProt Q92847)
[5] = target: T4, 5-hydroxytryptamine receptor 1A (Homo sapiens, UniProt P08908); format: functional, cell-based
T4 sequence (P08908 whole entry): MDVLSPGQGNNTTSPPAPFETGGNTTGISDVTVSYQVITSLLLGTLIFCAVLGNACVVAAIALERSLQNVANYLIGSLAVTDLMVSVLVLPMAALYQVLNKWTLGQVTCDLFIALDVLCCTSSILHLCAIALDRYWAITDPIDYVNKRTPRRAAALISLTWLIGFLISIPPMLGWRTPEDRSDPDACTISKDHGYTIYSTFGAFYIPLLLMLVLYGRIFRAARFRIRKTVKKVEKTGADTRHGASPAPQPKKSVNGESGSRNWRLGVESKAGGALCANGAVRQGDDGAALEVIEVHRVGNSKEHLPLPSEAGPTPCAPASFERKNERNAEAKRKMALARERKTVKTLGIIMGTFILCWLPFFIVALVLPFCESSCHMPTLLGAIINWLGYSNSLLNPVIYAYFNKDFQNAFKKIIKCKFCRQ

[6] = target: T5, Prostaglandin G/H synthase 1 (Rattus norvegicus, UniProt Q63921); format: functional
T5 sequence (Q63921 whole entry): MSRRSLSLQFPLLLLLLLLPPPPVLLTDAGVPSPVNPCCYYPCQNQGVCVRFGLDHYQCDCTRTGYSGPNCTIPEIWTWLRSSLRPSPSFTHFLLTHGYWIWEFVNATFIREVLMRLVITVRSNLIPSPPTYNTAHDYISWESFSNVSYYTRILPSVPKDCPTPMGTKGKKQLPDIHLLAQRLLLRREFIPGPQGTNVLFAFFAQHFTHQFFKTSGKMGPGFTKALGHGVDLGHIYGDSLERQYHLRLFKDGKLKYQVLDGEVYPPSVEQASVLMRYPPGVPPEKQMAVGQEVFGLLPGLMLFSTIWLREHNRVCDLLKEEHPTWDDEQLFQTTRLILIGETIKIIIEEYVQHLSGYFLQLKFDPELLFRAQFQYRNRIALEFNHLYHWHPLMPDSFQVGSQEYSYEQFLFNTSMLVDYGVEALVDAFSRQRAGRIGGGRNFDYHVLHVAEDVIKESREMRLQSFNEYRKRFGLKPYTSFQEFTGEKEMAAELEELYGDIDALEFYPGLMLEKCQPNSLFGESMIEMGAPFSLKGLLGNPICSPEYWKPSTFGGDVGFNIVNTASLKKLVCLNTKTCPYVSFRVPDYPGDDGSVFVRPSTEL

[7] = target: D(1A) dopamine receptor (Homo sapiens, UniProt P21728); format: functional, cell-based
[8] = target: Sodium-dependent serotonin transporter (Homo sapiens, UniProt P31645)
Note: assay procedure not described here.

Sequence of D(1A) dopamine receptor (P21728 whole entry): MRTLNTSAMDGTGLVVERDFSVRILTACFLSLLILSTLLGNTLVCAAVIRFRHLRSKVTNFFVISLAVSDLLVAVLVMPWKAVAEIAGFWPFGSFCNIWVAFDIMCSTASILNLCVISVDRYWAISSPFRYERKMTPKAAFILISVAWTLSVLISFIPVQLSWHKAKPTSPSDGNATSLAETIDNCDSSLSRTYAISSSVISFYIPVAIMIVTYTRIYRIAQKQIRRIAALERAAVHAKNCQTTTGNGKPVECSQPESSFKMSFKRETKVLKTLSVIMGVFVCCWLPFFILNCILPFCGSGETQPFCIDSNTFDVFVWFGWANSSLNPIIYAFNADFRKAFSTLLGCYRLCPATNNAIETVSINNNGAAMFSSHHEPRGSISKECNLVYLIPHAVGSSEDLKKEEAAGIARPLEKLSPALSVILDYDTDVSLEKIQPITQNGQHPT
Sequence of Growth hormone secretagogue receptor type 1 (Q92847 whole entry): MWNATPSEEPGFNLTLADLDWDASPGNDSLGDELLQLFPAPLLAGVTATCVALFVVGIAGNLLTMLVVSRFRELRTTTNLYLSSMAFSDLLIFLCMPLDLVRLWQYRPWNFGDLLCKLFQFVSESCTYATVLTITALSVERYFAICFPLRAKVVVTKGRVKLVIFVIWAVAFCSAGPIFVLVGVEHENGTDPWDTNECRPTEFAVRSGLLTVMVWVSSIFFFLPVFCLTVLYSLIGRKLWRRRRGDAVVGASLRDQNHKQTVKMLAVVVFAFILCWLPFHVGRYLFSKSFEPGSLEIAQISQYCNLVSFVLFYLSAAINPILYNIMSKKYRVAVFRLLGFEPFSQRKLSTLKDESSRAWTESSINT
Sequence of Sodium-dependent serotonin transporter (P31645 whole entry): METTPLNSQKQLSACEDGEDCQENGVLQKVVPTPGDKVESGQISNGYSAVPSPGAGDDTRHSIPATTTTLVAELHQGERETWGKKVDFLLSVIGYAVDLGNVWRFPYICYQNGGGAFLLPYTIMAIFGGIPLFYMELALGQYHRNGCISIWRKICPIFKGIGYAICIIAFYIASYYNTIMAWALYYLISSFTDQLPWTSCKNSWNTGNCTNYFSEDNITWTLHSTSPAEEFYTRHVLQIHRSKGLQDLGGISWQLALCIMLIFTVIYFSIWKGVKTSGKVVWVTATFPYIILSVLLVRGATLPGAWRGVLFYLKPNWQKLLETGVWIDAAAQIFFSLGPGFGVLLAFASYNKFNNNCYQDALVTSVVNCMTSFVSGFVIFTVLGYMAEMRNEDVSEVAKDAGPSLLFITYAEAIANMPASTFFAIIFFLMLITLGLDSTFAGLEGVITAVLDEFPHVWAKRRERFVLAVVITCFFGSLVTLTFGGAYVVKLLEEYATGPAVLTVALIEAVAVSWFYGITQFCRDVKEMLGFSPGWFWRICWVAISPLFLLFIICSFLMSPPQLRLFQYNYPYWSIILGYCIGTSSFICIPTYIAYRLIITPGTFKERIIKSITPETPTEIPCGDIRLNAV

SMILES | AC50 [1] [µM] | AC50 [8] [µM] | also measured
O=C(O)COc1ccc(C(=O)c2cccs2)c(Cl)c1Cl | > 30 | – | –
CCCN(CCC)C(=O)Cc1c(-c2ccc(Cl)cc2)nc2ccc(Cl)cn12 [ALPIDEM] | > 30 | – | AC50 [2]: > 30 µM; AC50 [3]: > 30 µM; AC50 [4]: > 30 µM; AC50 [5]: > 30 µM; AC50 [6]: > 30 µM; AC50 [7]: > 30 µM
COc1c2ccoc2cc2oc(=O)ccc12 [BERGAPTEN] | > 30 | > 30 | –
COc1cc2nccc(Oc3ccc(NC(=O)C4(C(=O)Nc5ccc(F)cc5)CC4)cc3)c2cc1OC [CABOZANTINIB] | > 30 | – | AC50 [2]: 26 µM; AC50 [4]: > 30 µM; AC50 [5]: > 30 µM; AC50 [6]: > 30 µM; AC50 [7]: > 30 µM
CNC(=O)Oc1cccc2ccccc12 [CARBARIL] | > 30 | > 30 | –
CC[C@H](C)C[C@H](C)CCCCCCCCC(=O)N[C@H]1C[C@@H](O)[C@@H](NCCN)NC(=O)[C@@H]2[C@@H](O)CCN2C(=O)[C@H]([C@H](O)CCN)NC(=O)[C@H]([C@H](O)[C@@H](O)c2ccc(O)cc2)NC(=O)[C@@H]2C[C@@H](O)CN2C(=O)[C@H]([C@@H](C)O)NC1=O [CASPOFUNGIN] | > 30 | > 30 | –
C/C=C/C/C=C/CCC(=O)[C@H]1O[C@H]1C(N)=O [CERULENIN] | > 30 | > 30 | –
CN(C)[C@@H]1C(O)=C(C(N)=O)C(=O)[C@@]2(O)C(O)=C3C(=O)c4c(O)ccc(Cl)c4[C@@](C)(O)[C@H]3C[C@@H]12 [CHLORTETRACYCLINE] | > 30 | – | –
N[C@@H](CS)C(=O)O [CYSTEINE] | > 30 | > 30 | –
C[C@H]1O[C@@H](n2cc(F)c(=O)[nH]c2=O)[C@H](O)[C@@H]1O [DOXIFLURIDINE] | > 30 | – | –
OC[C@H]1O[C@@H](c2ccc(Cl)c(Cc3ccc(O[C@H]4CCOC4)cc3)c2)[C@H](O)[C@@H](O)[C@@H]1O [EMPAGLIFLOZIN] | > 30 | > 30 | –
CC(C)(O)CNc1nc(Nc2ccnc(C(F)(F)F)c2)nc(-c2cccc(C(F)(F)F)n2)n1 [ENASIDENIB] | > 30 | > 30 | –
C#C[C@]1(O)CC[C@H]2[C@@H]3CCC4=CC(=O)CC[C@@H]4[C@H]3C(=C)C[C@@]21CC [ETONOGESTREL] | – | > 30 | AC50 [2]: > 30 µM; AC50 [5]: > 30 µM; AC50 [7]: > 30 µM
CCc1nc(C(N)=O)c(Nc2ccc(N3CCC(N4CCN(C)CC4)CC3)c(OC)c2)nc1NC1CCOCC1 [GILTERITINIB] | > 30 | > 30 | –
CC[C@H](c1ccc(O)cc1)[C@@H](CC)c1ccc(O)cc1 [HEXESTROL] | 25.9 | > 30 | –
CC(C)Cc1ccc(C(C)C(=O)O)cc1 (stereo not given) [IBUPROFEN] | > 30 | – | AC50 [2]: > 10 µM; AC50 [3]: > 30 µM; AC50 [4]: > 30 µM; AC50 [5]: > 10 µM; AC50 [7]: > 10 µM
O=C1/C(=C2\Nc3ccc(S(=O)(=O)O)cc3C2=O)Nc2ccc(S(=O)(=O)O)cc21 [INDIGOTINDISULFONATE] | > 30 | > 30 | –
OC[C@H]1O[C@@H](c2ccc(F)c(Cc3cc4ccccc4s3)c2)[C@H](O)[C@@H](O)[C@@H]1O [IPRAGLIFLOZIN] | > 30 | > 30 | –

SMILES | AC50 [1] [µM] | AC50 [8] [µM] | also measured
CC(C)C[C@H](NC(=O)CNC(=O)c1cc(Cl)ccc1Cl)B(O)O [IXAZOMIB] | > 30 | > 30 | –
C=CCN1CC[C@]23CCCC[C@H]2[C@H]1Cc1ccc(O)cc13 [LEVALLORPHAN] | > 30 | > 30 | –
C[N+](C)(C)C[C@H](O)CC(=O)[O-] [LEVOCARNITINE] | > 30 | – | –
CN(CC1(C)CCCO1)S(=O)(=O)c1ccc(Cl)c(S(N)(=O)=O)c1 (stereo not given) [MEFRUSIDE] | – | > 30 | AC50 [2]: > 30 µM; AC50 [7]: > 30 µM
CN1CCCCC1CCN1c2ccccc2Sc2ccc([S+](C)[O-])cc21 (stereo not given) [MESORIDAZINE] | > 30 | > 30 | –
C[C@@H]1C[C@H]2[C@@H]3CCC4=CC(=O)C=C[C@]4(C)[C@@]3(Cl)[C@@H](O)C[C@]2(C)[C@@]1(OC(=O)c1ccco1)C(=O)CCl [MOMETASONE FUROATE] | > 30 | > 30 | –
Cc1ccccc1C(=O)Nc1ccc(C(=O)N2CCCC(N(C)C)c3ccccc32)cc1 (stereo not given) [MOZAVAPTAN] | > 30 | 1.26 | –
O=C(O)c1cc(/N=N/c2ccc(O)c(C(=O)O)c2)ccc1O [OLSALAZINE] | > 30 | > 30 | –
CCOC(=O)C1=C[C@@H](OC(CC)CC)[C@H](NC(C)=O)[C@@H](N)C1 [OSELTAMIVIR] | > 30 | > 30 | –
CCOC(=O)c1c(C)cc2c(CO)n[nH]c(=O)c2c1C [OXAGRELATE] | – | > 30 | –
CC[C@@]1(O)C(=O)OCc2c1cc1n(c2=O)Cc2cc3c([N+](=O)[O-])cccc3nc2-1 [RUBITECAN] | – | > 30 | –
Nc1ccc(S(=O)(=O)Nc2nccs2)cc1 [SULFATHIAZOLE] | – | – | AC50 [2]: > 10 µM; AC50 [3]: > 30 µM; AC50 [4]: > 30 µM; AC50 [5]: > 10 µM; AC50 [6]: > 30 µM; AC50 [7]: > 10 µM
C=CC[C@@H]1/C=C(\C)C[C@H](C)C[C@H](OC)[C@H]2O[C@@](O)(C(=O)C(=O)N3CCCC[C@H]3C(=O)O[C@H](/C(C)=C/[C@@H]3CC[C@@H](O)[C@H](OC)C3)[C@H](C)[C@@H](O)CC1=O)[C@H](C)C[C@@H]2OC [TACROLIMUS ANHYDROUS] | – | – | AC50 [2]: > 30 µM; AC50 [3]: > 30 µM; AC50 [4]: > 30 µM; AC50 [5]: > 10 µM; AC50 [6]: > 30 µM; AC50 [7]: > 30 µM
C[C@]1(Cn2ccnn2)[C@H](C(=O)O)N2C(=O)C[C@H]2S1(=O)=O [TAZOBACTAM] | > 30 | – | –
CC1=C(/C=C/C(C)=C/C=C/C(C)=C/C(=O)O)C(C)(C)CCC1 [TRETINOIN] | > 30 | – | –
Cc1onc(-c2ccccc2)c1-c1ccc(S(N)(=O)=O)cc1 [VALDECOXIB] | > 30 | – | AC50 [2]: > 10 µM; AC50 [3]: > 30 µM; AC50 [4]: > 30 µM; AC50 [5]: > 10 µM; AC50 [6]: > 30 µM; AC50 [7]: > 10 µM
CCCC(CCC)C(=O)O [VALPROIC ACID] | – | – | AC50 [2]: > 10 µM; AC50 [3]: > 30 µM; AC50 [4]: > 30 µM; AC50 [5]: > 10 µM; AC50 [6]: > 30 µM; AC50 [7]: > 10 µM
